Data from US10208056B2, “Condensed tricyclic compounds as protein kinase inhibitors” (FUNDACIÓN DEL SECTOR PÚBLICO ESTATAL CENTRO NACIONAL DE …, priority 2015, dated 2019).

What was measured:
[1] = molecular target: CDK8/Cyclin C (Homo sapiens (Human), UniProt P49336); assay: CDK8/Cyclin C binding assay (LanthaScreen Eu-Kinase Binding Assay); conditions: binding assay
Method: The enzyme has been purchase from Invitrogen (PV4402) as a dimer of full-length His-tagged recombinant human proteins.
Assays were performed in 384-well plates. The final read out was generated using an EnVision plate reader (Perkin-Elmer).

[2] = molecular target: CDK19/Cyclin C (Homo sapiens (Human), UniProt Q9BWU1); assay: CDK19/Cyclin C binding assay (LanthaScreen Eu-Kinase Binding Assay); conditions: read-out: CDK19-CYCC IC50
In short: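 LanthaScreen TR-FRET tracer-displacement format with 2 nM Cdk19-Cyclin C, 20 nM tracer and 2 nM Eu-anti-GST antibody. The buffer was 50 mM HEPES pH 7.5, 10 mM MgCl2, 1 mM EGTA, 0.01% Brij-35, with 1% DMSO final. Compounds were tested as 1:3 serial dilutions and incubated for 60 min at 25 °C.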

[3] = molecular target: T1, intracellular CDK8 (Homo sapiens (Human), UniProt P49336); assay: Cellular CDK8 inhibition assay, western blot P-STAT1 (S727) in IFN-γ treated SW620 cells; assay type: cell-based; conditions: SW620, IFNγ treated, semiquantitative; read-out: SW620 P-STAT1(S727) w IFNγ
Method: Compounds can be screened for their ability to inhibit intracellular CDK8 using a western blot assay to detect phosphorylation of the CDK8 substrate STAT1 (S727) in IFN-γ treated cells. SW620 cells are plated at 1*10^6 cells per well in 6-well plates (Solmeglas 13118) in RPMI media (Sigma-Aldrich R6504) supplemented with 10% foetal bovine serum (Sigma-Aldrich F7524), Penicillin/Streptomycin solution diluted 1:100 (Gibco 15070-063), and fungizone (Gibco, 15290-018), and allowed to adhere overnight at 37° C. in 5% CO2. Compounds are then added to the cell media from a final concentration of 10 μM in 10-fold serial dilutions and the cells are incubated at 37° C. in 5% CO2. After 1 hour, IFNγ (R&D systems Ref. RYD-285-IF-100) is added to a final concentration of […]. After 3 hours of treatment with IFNγ, the cells are washed in PBS, lysed adding 100 μl of protein lysis buffer (62.5 mM Tris pH 6.8 al 6.25%, 2% SDS y 10% glycerol) incubation 10 minutes at room temperature and heating at 95° C. 10 min. The protein content of the lysates is determined by DC protein assay (Biorad, Ref. 5000116). The proteins are resolved by SDS-PAGE and transferred to nitrocellulose membrane (VWR International eurolab, Ref. 732-4007). The membranes are incubated overnight at 4° C. with antibodies specific for total STAT1 (BD Transduction laboratory #610115), phosphoserine-727 STAT1 (Cell Signaling Ref. 9177) they are washed and then incubated with IRDye800 conjugated anti-mouse (Pierce/Cultek, 35521) and Alexa Fluor 680 goat anti-rabbit IgG secondary antibodies (Invitrogen, A21076). The bands are visualized and quantified using an Odyssey infrared imaging system (Li-Cor Biosciences). The percentage of phosphorylated STAT1 vs total STAT1 in cells treated with IFNγ is taken as hundred percent of phosphorylation. The percentage of STAT1 phosphorylation is finally plotted against concentration for each compound and EC50s for intracellular CDK8 inhibition are calculated using ActivityBase from IDBS.

[4] = molecular target: T1, intracellular CDK8; assay: Endogenous phosphoSTAT1 inhibition in SW620 cells growing in 10% FBS; assay type: cell-based; conditions: semiquantitative, read-out: SW620 P-STAT1(S727)
In short: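 SW620 cells in 10% FBS treated 8 h with compound, then lysed and phospho-STAT1 measured relative to total STAT1.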

[5] = test system: MV4:11; assay: In vitro cell proliferation assay (CellTiter-Glo), MV4:11; assay type: cell-based; conditions: Homo sapiens, MV4-11; growth inhibition, semiquantitative; read-out: GI50 MV4:11
[6] = test system: MDA-MB-231; assay: In vitro cell proliferation assay (CellTiter-Glo), MDA-MB-231; assay type: cell-based; conditions: Homo sapiens, MDA-MB-231; growth inhibition, semiquantitative; read-out: GI50 MDA-MB-231
[7] = test system: SW620; assay: In vitro cell proliferation assay (CellTiter-Glo), SW620; assay type: cell-based, human; conditions: Homo sapiens, SW-620; growth inhibition, semiquantitative; read-out: GI50 SW620
[8] = test system: Molm13; assay: In vitro cell proliferation assay (CellTiter-Glo), Molm13; assay type: cell-based; conditions: Homo sapiens, MOLM-13; growth inhibition, semiquantitative; read-out: GI50 Molm13
[9] = test system: SW620 cells; assay: Colony formation assay; assay type: cell-based, human; conditions: SW620 cells treated 11 days
Method: The in vitro potency of the compounds was measured by colony formation assays. SW620 cells in logarithmic growth phase are plated at 800 cells per well in 6-well plates (Solmeglas 13118) in RPMI media (Sigma-Aldrich R6504) supplemented with 10% foetal bovine serum (Sigma-Aldrich F7524), Penicillin/Streptomycin solution diluted 1:100 (Gibco 15070-063), and fungizone (Gibco, 15290-018), and allowed to adhere overnight at 37° C. in 5% CO2. Compounds are then added to the cell media from a final concentration of 10 μM in 10-fold serial dilutions and the cells are incubated at 37° C. in 5% CO2. Every three days the medium is changed by fresh medium and compounds are added again. After 11 days, colonies are washed with PBS and fixed in 0.5% crystal violet (Sigma-Aldrich Ref. V5265), 6% glutaraldehide (Sigma-Aldrich Ref. G5882) for 30 minutes. After extensive washing, colonies are dissolved in 2 ml of 10% glacial acetic acid (Sigma-Aldrich Ref. 537020) and absorbance at 590 nm is measured in the Victor 1420 Multilabel Counter (Perkin Elmer). The absorbance in cells treated with DMSO is taken as hundred percent of proliferation. The percentage of proliferation is finally plotted against concentration for each compound and EC50s for colony formation inhibition are calculated using ActivityBase from IDBS.

[10] = test system: SW620; assay: Combination assay, SW620; assay type: cell-based, human; conditions: Homo sapiens, SW-620; SW620, chemotherapeutic alone; read-out: Chemo GI50
Method: (§1) The combination index (CI) of combinations of certain example compounds and various chemotherapeutic agents in the CellTitetI-Glo® in vitro cell proliferation assays may be tested. A combination index score is calculated by the Chou and Talalay method (CalcuSyn software, Biosoft). The strength of synergy is scored using the ranking system Chou and Talalay: CI less than 0.8 indicates synergy, CI between 0.8 and 1.2 indicates additivity and CI greater than 1.2 indicates antagonism.
(§2) The EC50 values of representative combinations are also calculated. The individually measured EC50 values of the chemotherapeutic agent and the example compounds are compared to the EC50 value of the combination. The cell lines are characterised by tumor type. Combination assays are performed as described in: “Pim 1 kinase inhibitor ETP-45299 suppresses cellular proliferation and synergizes with PI3K inhibition”. Blanco-Aparicio, Carmen; Collazo, Ana Maria Garcia; Oyarzabal, Julen; Leal, Juan F.; Albaran, Maria Isabel; Lima, Francisco Ramos; Pequeno, Belen; Ajenjo, Nuria; Becerra, Mercedes; Alfonso, Patricia; Reymundo, Maria Isabel; Palacios, Irene; Mateos, Genoveva; Quinones, Helena; Corrionero, Ana; Carnero, Amancio; Pevarello, Paolo; Lopez, Ana Rodriguez; Fominaya, Jesus; Pastor, Joaquin; Bischoff, James R. Cancer Letters (Shannon, Ireland) 2011, 300(2), 145-153

[11] = test system: HCT116; assay: Combination assay, HCT116; assay type: cell-based; conditions: Homo sapiens, HCT-116; HCT116, chemotherapeutic alone; read-out: Chemo GI50
Method: as §1, §2

[12] = test system: SKMEL19; assay: Combination assay, SKMEL19; assay type: cell-based; conditions: Homo sapiens, SK-MEL19; SKMEL19, chemotherapeutic alone; read-out: Chemo GI50
Method: as §1, §2

[13] = test system: DU145; assay: Combination assay, DU145; assay type: cell-based; conditions: Homo sapiens, DU-145; DU145, chemotherapeutic alone; read-out: Chemo GI50
Method: as §1
The EC50 values of representative combinations are also calculated. The individually measured EC50 values of the chemotherapeutic agent and the example compounds are compared to the EC50 value of the combination. The cell lines are characterised by tumor type. […] Blanco-Aparicio, Carmen; Collazo, Ana Maria Garcia; Oyarzabal, Julen; Leal, Juan F.; Albaran, Maria Isabel; Lima, Francisco Ramos; Pequeno, Belen; Ajenjo, Nuria; Becerra, Mercedes; Alfonso, Patricia; Reymundo, Maria Isabel; Palacios, Irene; Mateos, Genoveva; Quinones, Helena; Corrionero, Ana; Carnero, Amancio; Pevarello, Paolo; Lopez, Ana Rodriguez; Fominaya, Jesus; Pastor, Joaquin; Bischoff, James R. Cancer Letters (Shannon, Ireland) 2011, 300(2), 145-153

[14] = test system: BXPC-3; assay: Combination assay, BXPC-3; assay type: cell-based; conditions: Homo sapiens; BXPC-3, chemotherapeutic alone; read-out: Chemo GI50
Method: as §1, §2

[15] = test system: H3T3ph in tumoral cells from colon, breast and cervix; conditions: dose dependent; cited from earlier work
[16] = test system: MDAMB231; assay: Combination assay, MDAMB231; assay type: cell-based; conditions: Homo sapiens, MDA-MB-231; MDAMB231, chemotherapeutic alone; read-out: Chemo GI50
Method: as §1, §2

[17] = test system: A549; assay: Combination assay, A549; assay type: cell-based; conditions: Homo sapiens; A549, chemotherapeutic alone; read-out: Chemo GI50
Method: as §1, §2

[18] = molecular target: Haspin kinase (Homo sapiens (Human), UniProt Q8TF76); assay: Haspin kinase assay (ADP-Glo); assay type: biochemical; conditions: ATP 150 μM
In short: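 ADP-Glo luminescence measured the intrinsic ATPase activity, without peptide substrate, of the GST-tagged human Haspin kinase domain (20 nM) at 150 μM ATP. Reactions ran 60 min at 30 °C in HEPES pH 7.4 buffer with 10 mM MgCl2 and 1% DMSO. Inhibition was calculated against no-compound controls across 1:3 dilution series.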

[19] = molecular target: intracellular HASPIN (Homo sapiens (Human), UniProt Q8TF76); assay: Cellular HASPIN inhibition assay, western blot phospho H3T3 in synchronized SW620 cells; assay type: cell-based; conditions: semiquantitative, read-out: SW620 PH3(T3) in synchronized cells
Method: Compounds can be screened for their ability to inhibit intracellular HASPIN using a western blot assay to detect phosphorylation of the HASPIN substrate H3T3 in synchronized cells. SW620 cells are plated at 200000 cells per well in 6-well plates (Solmeglas 13118) in RPMI media (Sigma-Aldrich R6504) supplemented with 10% foetal bovine serum (Sigma-Aldrich F7524), Penicillin/Streptomycin solution diluted 1:100 (Gibco 15070-063), and fungizone (Gibco, 15290-018), and allowed to adhere overnight at 37° C. in 5% CO2. Cells are then treated 16 h hours with Nocadazole (Sigma-Aldrich M1404) at 250 ng/ml to arrest them in mitosis. Proteasoma inhibitor MG132 (Sigma-Aldrich C2211) is added to a final concentration of […] to keep cells arrested in mitosis. Compounds are then added to the cell media from a final concentration of 10 μM in 10-fold serial dilutions and the cells are incubated at 37° C. in 5% CO2. After 1 hour and 30 minutes of treatment with the compounds, the cells are washed in PBS, lysed adding 100 μl of protein lysis buffer (62.5 mM Tris pH 6.8 al 6.25%, 2% SDS y 10% glycerol) incubation 10 minutes at room temperature and heating at 95° C. 10 min. The protein content of the lysates is determined by DC protein assay (Biorad, Ref. 5000116). The proteins are resolved by SDS-PAGE and transferred to nitrocellulose membrane (VWR International eurolab, Ref. 732-4007). The membranes are incubated overnight at 4° C. with antibodies specific for total H3 (Millipore #07424), phosphothreonine-3 H3 (Cell Signaling Ref. 14269) they are washed and then incubated with IRDye800 conjugated anti-mouse (Pierce/Cultek, 35521) and Alexa Fluor 680 goat anti-rabbit IgG secondary antibodies (Invitrogen, A21076). The bands are visualized and quantified using an Odyssey infrared imaging system (Li-Cor Biosciences). The percentage of phosphorylated H3 vs total H3 in synchronized cells is taken as hundred percent of phosphorylation. The percentage of H3 phosphorylation is finally plotted against concentration for each compound and EC50s for intracellular HASPIN inhibition are calculated using ActivityBase from IDBS.

T1 sequence (P49336 whole entry): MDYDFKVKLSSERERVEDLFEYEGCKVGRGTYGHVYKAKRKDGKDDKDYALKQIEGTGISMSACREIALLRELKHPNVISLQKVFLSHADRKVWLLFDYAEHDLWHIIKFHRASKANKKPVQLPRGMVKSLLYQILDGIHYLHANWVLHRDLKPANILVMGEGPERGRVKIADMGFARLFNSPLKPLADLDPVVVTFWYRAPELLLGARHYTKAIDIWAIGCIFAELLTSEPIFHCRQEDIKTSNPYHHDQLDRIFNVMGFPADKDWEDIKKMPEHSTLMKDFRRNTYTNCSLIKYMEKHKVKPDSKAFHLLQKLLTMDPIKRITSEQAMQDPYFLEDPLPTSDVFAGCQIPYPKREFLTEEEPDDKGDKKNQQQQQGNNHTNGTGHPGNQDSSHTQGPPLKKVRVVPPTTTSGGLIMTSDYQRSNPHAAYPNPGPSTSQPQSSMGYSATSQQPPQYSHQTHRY
T1 sequence (P24863 whole entry partner): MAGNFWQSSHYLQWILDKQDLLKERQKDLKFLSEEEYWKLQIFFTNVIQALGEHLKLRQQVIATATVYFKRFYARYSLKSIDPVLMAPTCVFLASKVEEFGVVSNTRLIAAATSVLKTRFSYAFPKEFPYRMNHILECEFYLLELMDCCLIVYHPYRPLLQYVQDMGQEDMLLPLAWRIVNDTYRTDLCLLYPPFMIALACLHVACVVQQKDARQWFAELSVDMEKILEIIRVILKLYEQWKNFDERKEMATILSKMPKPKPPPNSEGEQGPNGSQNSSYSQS
T1 sequence (Q93074 whole entry partner): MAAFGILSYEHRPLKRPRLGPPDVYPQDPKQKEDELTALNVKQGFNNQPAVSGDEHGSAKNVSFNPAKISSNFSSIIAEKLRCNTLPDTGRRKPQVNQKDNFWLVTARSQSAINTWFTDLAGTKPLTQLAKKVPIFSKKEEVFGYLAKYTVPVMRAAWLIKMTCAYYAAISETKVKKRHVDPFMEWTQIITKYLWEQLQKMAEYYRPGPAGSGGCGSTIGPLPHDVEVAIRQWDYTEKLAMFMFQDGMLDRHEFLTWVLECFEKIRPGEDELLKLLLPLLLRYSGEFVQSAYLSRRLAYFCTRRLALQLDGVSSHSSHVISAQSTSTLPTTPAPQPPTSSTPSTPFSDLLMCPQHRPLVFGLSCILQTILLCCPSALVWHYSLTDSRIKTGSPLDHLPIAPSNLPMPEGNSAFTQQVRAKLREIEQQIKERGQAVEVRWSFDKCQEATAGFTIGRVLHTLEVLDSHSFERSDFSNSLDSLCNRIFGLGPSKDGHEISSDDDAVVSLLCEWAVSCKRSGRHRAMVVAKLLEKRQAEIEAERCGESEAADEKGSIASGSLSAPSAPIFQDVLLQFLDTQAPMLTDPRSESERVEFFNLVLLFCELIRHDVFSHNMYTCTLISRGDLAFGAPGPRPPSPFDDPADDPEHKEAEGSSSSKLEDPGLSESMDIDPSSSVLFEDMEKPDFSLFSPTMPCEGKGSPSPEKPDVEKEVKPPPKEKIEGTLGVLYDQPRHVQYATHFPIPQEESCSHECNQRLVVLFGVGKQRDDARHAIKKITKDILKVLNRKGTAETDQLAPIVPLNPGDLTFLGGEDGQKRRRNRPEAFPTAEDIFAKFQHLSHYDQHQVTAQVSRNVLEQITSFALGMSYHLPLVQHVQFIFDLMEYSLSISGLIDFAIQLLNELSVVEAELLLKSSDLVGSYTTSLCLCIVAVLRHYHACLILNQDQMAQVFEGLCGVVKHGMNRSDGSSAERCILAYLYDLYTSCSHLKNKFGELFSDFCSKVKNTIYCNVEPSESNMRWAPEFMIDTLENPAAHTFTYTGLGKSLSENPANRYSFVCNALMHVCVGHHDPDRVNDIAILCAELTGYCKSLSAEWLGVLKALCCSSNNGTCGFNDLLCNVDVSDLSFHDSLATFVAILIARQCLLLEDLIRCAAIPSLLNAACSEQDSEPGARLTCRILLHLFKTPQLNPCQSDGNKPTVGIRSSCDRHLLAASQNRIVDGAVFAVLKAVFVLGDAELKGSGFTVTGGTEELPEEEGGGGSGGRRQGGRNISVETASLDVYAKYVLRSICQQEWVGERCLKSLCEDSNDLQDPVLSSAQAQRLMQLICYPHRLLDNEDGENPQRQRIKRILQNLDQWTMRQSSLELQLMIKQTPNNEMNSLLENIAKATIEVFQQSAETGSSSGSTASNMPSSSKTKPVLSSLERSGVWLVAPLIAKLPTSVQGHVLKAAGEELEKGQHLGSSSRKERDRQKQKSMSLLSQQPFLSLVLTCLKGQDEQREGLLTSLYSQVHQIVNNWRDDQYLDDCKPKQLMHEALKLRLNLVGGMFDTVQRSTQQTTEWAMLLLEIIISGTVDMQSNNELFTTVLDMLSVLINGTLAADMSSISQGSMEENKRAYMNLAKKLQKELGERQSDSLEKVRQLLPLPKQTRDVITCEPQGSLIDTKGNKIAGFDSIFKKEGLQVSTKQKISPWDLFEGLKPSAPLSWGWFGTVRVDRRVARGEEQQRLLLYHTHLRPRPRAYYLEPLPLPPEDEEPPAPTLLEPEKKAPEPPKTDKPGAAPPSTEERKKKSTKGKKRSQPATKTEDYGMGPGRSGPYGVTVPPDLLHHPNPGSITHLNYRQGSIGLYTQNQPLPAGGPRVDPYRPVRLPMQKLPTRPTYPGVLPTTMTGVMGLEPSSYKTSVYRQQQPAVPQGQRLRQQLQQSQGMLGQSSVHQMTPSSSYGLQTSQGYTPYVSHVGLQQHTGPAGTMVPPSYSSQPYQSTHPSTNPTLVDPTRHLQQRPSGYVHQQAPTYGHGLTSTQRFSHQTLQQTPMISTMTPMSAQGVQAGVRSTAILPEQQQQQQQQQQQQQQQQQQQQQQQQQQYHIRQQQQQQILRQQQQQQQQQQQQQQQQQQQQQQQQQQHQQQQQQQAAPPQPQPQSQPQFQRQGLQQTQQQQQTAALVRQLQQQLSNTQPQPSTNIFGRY
Sequence of CDK8/Cyclin C (P49336 whole entry): as the sequence (P49336 whole entry) above
Sequence of CDK8/Cyclin C (P24863 whole entry partner): as the sequence (P24863 whole entry partner) above
Sequence of CDK19/Cyclin C (Q9BWU1 whole entry): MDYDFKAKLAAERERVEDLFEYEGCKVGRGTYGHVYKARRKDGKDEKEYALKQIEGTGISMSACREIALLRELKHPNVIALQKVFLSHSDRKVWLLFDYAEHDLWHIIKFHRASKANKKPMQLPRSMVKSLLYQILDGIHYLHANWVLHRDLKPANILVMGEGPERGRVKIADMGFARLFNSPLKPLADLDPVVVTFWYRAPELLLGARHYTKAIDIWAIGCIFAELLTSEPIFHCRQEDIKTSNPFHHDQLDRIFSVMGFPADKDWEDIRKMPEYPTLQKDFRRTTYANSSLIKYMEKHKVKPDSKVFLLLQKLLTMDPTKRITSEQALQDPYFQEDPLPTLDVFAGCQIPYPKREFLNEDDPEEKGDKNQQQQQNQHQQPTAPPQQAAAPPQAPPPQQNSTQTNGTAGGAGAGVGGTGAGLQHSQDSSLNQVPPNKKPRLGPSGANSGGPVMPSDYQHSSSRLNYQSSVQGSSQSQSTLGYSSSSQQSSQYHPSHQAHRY
Sequence of CDK19/Cyclin C (P24863 whole entry partner): as the sequence (P24863 whole entry partner) above
Sequence of intracellular HASPIN (Q8TF76 whole entry): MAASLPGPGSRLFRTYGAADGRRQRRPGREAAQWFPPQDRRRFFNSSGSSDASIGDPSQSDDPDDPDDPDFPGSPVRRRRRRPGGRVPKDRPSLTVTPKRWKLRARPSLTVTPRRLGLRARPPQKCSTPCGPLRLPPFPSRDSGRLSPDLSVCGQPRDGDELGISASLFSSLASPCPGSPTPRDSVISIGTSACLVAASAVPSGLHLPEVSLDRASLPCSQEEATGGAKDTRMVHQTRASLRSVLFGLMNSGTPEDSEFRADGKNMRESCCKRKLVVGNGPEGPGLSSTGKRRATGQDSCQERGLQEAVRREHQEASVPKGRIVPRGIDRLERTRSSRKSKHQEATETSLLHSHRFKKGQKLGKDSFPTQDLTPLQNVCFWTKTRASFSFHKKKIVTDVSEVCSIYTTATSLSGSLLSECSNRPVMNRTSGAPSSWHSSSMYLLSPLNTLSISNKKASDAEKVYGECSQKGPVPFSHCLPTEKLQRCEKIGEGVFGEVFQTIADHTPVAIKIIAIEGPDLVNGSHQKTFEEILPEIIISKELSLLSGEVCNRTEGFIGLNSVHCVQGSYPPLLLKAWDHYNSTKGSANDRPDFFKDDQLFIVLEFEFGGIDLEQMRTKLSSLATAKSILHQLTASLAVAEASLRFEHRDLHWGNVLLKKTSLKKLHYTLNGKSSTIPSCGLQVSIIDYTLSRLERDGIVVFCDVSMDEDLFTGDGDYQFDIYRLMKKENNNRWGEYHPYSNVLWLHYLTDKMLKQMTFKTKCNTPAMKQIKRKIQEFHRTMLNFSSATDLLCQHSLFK
Sequence of Haspin kinase (Q8TF76 484-798): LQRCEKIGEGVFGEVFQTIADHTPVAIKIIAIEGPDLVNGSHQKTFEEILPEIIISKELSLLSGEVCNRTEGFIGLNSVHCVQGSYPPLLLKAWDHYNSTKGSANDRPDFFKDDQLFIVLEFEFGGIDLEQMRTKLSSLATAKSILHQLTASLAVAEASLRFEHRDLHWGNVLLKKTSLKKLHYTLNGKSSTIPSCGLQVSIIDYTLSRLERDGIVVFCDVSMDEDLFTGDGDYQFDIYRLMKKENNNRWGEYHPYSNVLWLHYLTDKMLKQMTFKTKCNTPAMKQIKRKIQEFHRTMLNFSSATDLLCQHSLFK

Structure (SMILES) | IC50 [1] [nM] | IC50 [2] [nM] | EC50 [3] [nM] | effect in colony forming assay [9] | GI50 [10] [nM] | GI50 [12] [nM] | GI50 [14] [nM] | further results
NC(=O)c1cc2c([nH]1)-c1ccncc1O[C@H]2C1CCCCC1 (single isomer, unassigned) [Example 70] | 8.5 | 7.14 | < 500 | dose-dependent effect |  |  |  | EC50 [4]: < 500 nM; GI50 [5]: < 1000 nM; GI50 [6]: 10000 to 100000 nM; GI50 [7]: 1000 to 10000 nM; GI50 [8]: 1000 to 10000 nM
C[C@@H](Oc1cc(-c2cnn(C3CCNCC3)c2)cnc1N)c1c(Cl)ccc(F)c1Cl [Crizotinib, crizotinib, reference compound] |  |  |  |  | 1000 | 5000 | 5000 | GI50 [11]: 5000 nM; GI50 [13]: 20000 nM
CCCNc1ccc2ncc(-c3ccc4[nH]ncc4c3)n2n1 [CHR-6494] |  |  |  |  |  |  |  | reduction of H3T3ph [15]: reduce H3T3ph
CN(NC(=O)CC(=O)NN(C)C(=S)c1ccccc1)C(=S)c1ccccc1 [Elesclomol, elesclomol, reference compound] |  |  |  |  | 250 | 250 | 62 | GI50 [16]: 250 nM; GI50 [17]: 250 nM
COc1ccccc1-c1c2c(n(CCF)c1C(N)=O)-c1ccncc1OC2(C)C [Example 73] | 139 | 97.3 | < 500 | dose-dependent effect |  |  |  | IC50 [18]: 1120 nM; EC50 [19]: 500 to 10000 nM; EC50 ([9]; Homo sapiens, SW-620, 264 h, read-out: mean EC50, colony forming assay): 5430 ± 297 nM
